Experimental data from ChEMBL document CHEMBL1201862, “PubChem BioAssay data set” (2004).
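A five-concentration, 48-hour dose response in 96-well plates underlies each endpoint, interpolated linearly between surrounding concentrations. GI50 is the concentration that inhibits growth by half.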 Calls of active or inactive are those of the source. Cut-off read from the data, not from the text of the source: active = GI50 up to about 1.1 µM and inactive = higher.

Tests used:
Assay in all cases: DTP human tumour cell line panel, 48 h
CCRF-CEM = tested on: CCRF-CEM
NCI-H226 = tested on: NCI-H226
MOLT-4 = tested on: MOLT-4
SK-OV-3 = tested on: SK-OV-3
NCI-H23 = tested on: NCI-H23
SN12C = tested on: SN12C
HCT-15 = tested on: HCT-15
MDA-MB-231 = tested on: MDA-MB-231
NCI/ADR-RES = tested on: NCI/ADR-RES
Hs-578T = tested on: Hs-578T
UACC-257 = tested on: UACC-257
IGROV-1 = tested on: IGROV-1
SW-620 = tested on: SW-620
SF-295 = tested on: SF-295
OVCAR-4 = tested on: OVCAR-4
OVCAR-3 = tested on: OVCAR-3
SK-MEL-2 = tested on: SK-MEL-2
U-251 = tested on: U-251
MDA-N = tested on: MDA-N
K562 = tested on: K562
ACHN = tested on: ACHN
SK-MEL-5 = tested on: SK-MEL-5
M14 = tested on: M14
MCF7 = tested on: MCF7
SNB-19 = tested on: SNB-19
OVCAR-5 = tested on: OVCAR-5
NCI-H522 = tested on: NCI-H522
NCI-H460 = tested on: NCI-H460
HCT-116 = tested on: HCT-116
UACC-62 = tested on: UACC-62
RPMI-8226 = tested on: RPMI-8226
TK-10 = tested on: TK-10
KM12 = tested on: KM12
786-0 = tested on: 786-0
LOX IMVI = tested on: LOX IMVI
SF-268 = tested on: SF-268
BT-549 = tested on: BT-549
COLO 205 = tested on: COLO 205
HOP-92 = tested on: HOP-92
SR = tested on: SR
UO-31 = tested on: UO-31
HOP-62 = tested on: HOP-62
CAKI-1 = tested on: CAKI-1
HCC 2998 = tested on: HCC 2998
EKVX = tested on: EKVX
SF-539 = tested on: SF-539
A498 = tested on: A498
T47D = tested on: T47D
Malme-3M = tested on: Malme-3M
HT-29 = tested on: HT-29
RXF 393 = tested on: RXF 393
OVCAR-8 = tested on: OVCAR-8
A549 = tested on: A549
PC-3 = tested on: PC-3
MDA-MB-435 = tested on: MDA-MB-435
SNB-75 = tested on: SNB-75
DU-145 = tested on: DU-145
HL-60 = tested on: HL-60
SK-MEL-28 = tested on: SK-MEL-28

In the case of CCc1n[nH]c(=O)n1NC(=O)CCCC(=O)O, the GI50 (CCRF-CEM) was > 100 µM (inactive), the GI50 (NCI-H226) was > 100 µM (inactive) and the GI50 (MOLT-4) was > 100 µM (inactive). The GI50 (SK-OV-3) was > 100 µM (inactive), the GI50 (NCI-H23) was > 100 µM (inactive) and the GI50 (SN12C) was > 100 µM (inactive). The GI50 (HCT-15) was greater than 100 µM, the GI50 (MDA-MB-231) was > 100 µM (inactive) and the GI50 (NCI/ADR-RES) was > 100 µM (inactive). For the same molecule, the GI50 (Hs-578T) was > 100 µM (inactive), the GI50 (UACC-257) was > 100 µM (inactive) and the GI50 (IGROV-1) was > 100 µM (inactive). The GI50 (SW-620) was > 100 µM (inactive), the GI50 (SF-295) was > 100 µM (inactive) and the GI50 (OVCAR-4) was > 100 µM (inactive). The GI50 (OVCAR-3) was > 100 µM (inactive), the GI50 (SK-MEL-2) was > 100 µM (inactive) and the GI50 (U-251) was > 100 µM (inactive). For the same molecule, the GI50 (MDA-N) was > 100 µM (inactive), the GI50 (K562) was > 100 µM (inactive) and the GI50 (ACHN) was > 100 µM (inactive). For the same molecule, the GI50 (SK-MEL-5) was > 100 µM (inactive), the GI50 (M14) was > 100 µM (inactive) and the GI50 (MCF7) was > 100 µM (inactive). The GI50 (SNB-19) was > 100 µM (inactive), the GI50 (OVCAR-5) was > 100 µM (inactive) and the GI50 (NCI-H522) was > 100 µM (inactive). For the same molecule, the GI50 (NCI-H460) was > 100 µM (inactive), the GI50 (HCT-116) was > 100 µM (inactive) and the GI50 (UACC-62) was > 100 µM (inactive). The GI50 (RPMI-8226) was > 100 µM (inactive), the GI50 (TK-10) was > 100 µM (inactive) and the GI50 (KM12) was > 100 µM (inactive). The GI50 (786-0) was > 100 µM (inactive), the GI50 (LOX IMVI) was > 100 µM (inactive) and the GI50 (SF-268) was > 100 µM (inactive). The GI50 (BT-549) was > 100 µM (inactive), the GI50 (COLO 205) was > 100 µM (inactive) and the GI50 (HOP-92) was > 100 µM (inactive). For the same molecule, the GI50 (SR) was > 100 µM (inactive), the GI50 (UO-31) was > 100 µM (inactive) and the GI50 (HOP-62) was > 100 µM (inactive). For the same molecule, the GI50 (CAKI-1) was > 100 µM (inactive), the GI50 (HCC 2998) was > 100 µM (inactive) and the GI50 (EKVX) was > 100 µM (inactive). For the same molecule, the GI50 (SF-539) was > 100 µM (inactive), the GI50 (A498) was > 100 µM (inactive) and the GI50 (T47D) was > 100 µM (inactive). For the same molecule, the GI50 (Malme-3M) was > 100 µM (inactive), the GI50 (HT-29) was > 100 µM (inactive) and the GI50 (RXF 393) was > 100 µM (inactive). For the same molecule, the GI50 (OVCAR-8) was > 100 µM (inactive), the GI50 (A549) was > 100 µM (inactive) and the GI50 (PC-3) was > 100 µM (inactive). For the same molecule, the GI50 (MDA-MB-435) was > 100 µM (inactive).

In the case of CC1=CC2C(C(C)C)CC1C1C(=O)OC(=O)C21 (stereo unspecified), the GI50 (NCI-H226) was > 100 µM (inactive), the GI50 (SNB-75) was > 100 µM (inactive) and the GI50 (SK-OV-3) was > 100 µM (inactive). For the same molecule, the GI50 (NCI-H23) was > 100 µM (inactive), the GI50 (SN12C) was 79.3 µM (inactive) and the GI50 (HCT-15) was 58.2 µM. For the same molecule, the GI50 (MDA-MB-231) was > 100 µM (inactive), the GI50 (NCI/ADR-RES) was 77.3 µM (inactive) and the GI50 (Hs-578T) was 75.3 µM (inactive). For the same molecule, the GI50 (UACC-257) was > 100 µM (inactive), the GI50 (DU-145) was > 100 µM (inactive) and the GI50 (IGROV-1) was 14.4 µM (inactive). The GI50 (SW-620) was 86.9 µM (inactive), the GI50 (OVCAR-4) was 91 µM (inactive) and the GI50 (OVCAR-3) was 23.2 µM (inactive). For the same molecule, the GI50 (SK-MEL-2) was > 100 µM (inactive), the GI50 (U-251) was 64.1 µM (inactive) and the GI50 (K562) was 39.7 µM (inactive). For the same molecule, the GI50 (ACHN) was > 100 µM (inactive), the GI50 (SK-MEL-5) was 85.5 µM (inactive) and the GI50 (M14) was > 100 µM (inactive). For the same molecule, the GI50 (MCF7) was > 100 µM (inactive), the GI50 (SNB-19) was > 100 µM (inactive) and the GI50 (OVCAR-5) was > 100 µM (inactive). For the same molecule, the GI50 (NCI-H522) was 52.7 µM (inactive), the GI50 (NCI-H460) was > 100 µM (inactive) and the GI50 (HCT-116) was 76.7 µM (inactive). For the same molecule, the GI50 (UACC-62) was > 100 µM (inactive), the GI50 (TK-10) was 45.8 µM (inactive) and the GI50 (786-0) was > 100 µM (inactive). For the same molecule, the GI50 (LOX IMVI) was > 100 µM (inactive), the GI50 (SF-268) was > 100 µM (inactive) and the GI50 (BT-549) was 84.1 µM (inactive). For the same molecule, the GI50 (COLO 205) was > 100 µM (inactive), the GI50 (HL-60) was 23.3 µM (inactive) and the GI50 (HOP-92) was 65.5 µM (inactive). The GI50 (UO-31) was > 100 µM (inactive), the GI50 (HOP-62) was 99.3 µM (inactive) and the GI50 (HCC 2998) was 30.9 µM (inactive). For the same molecule, the GI50 (EKVX) was > 100 µM (inactive), the GI50 (SF-539) was > 100 µM (inactive) and the GI50 (A498) was > 100 µM (inactive). For the same molecule, the GI50 (T47D) was 49.8 µM (inactive), the GI50 (SK-MEL-28) was > 100 µM (inactive) and the GI50 (Malme-3M) was 52 µM (inactive). The GI50 (HT-29) was > 100 µM (inactive), the GI50 (RXF 393) was > 100 µM (inactive) and the GI50 (OVCAR-8) was 65.6 µM (inactive). For the same molecule, the GI50 (A549) was > 100 µM (inactive), the GI50 (PC-3) was 76.6 µM (inactive) and the GI50 (MDA-MB-435) was > 100 µM (inactive).
